Columns and labels:
Type in all cases: in vivo
[1] = test system: Alopecurus myosuroides (ALOMY); test: Example B pre-emergence herbicidal activity; conditions: 312 h, evaluated after 13 days, read-out: Pre-Emergence Activity ALOMY (100=total damage to plant; 0=no damage to plant); for pest or weed control at 250 g/ha: rate 250 g/ha
Procedure: (§1) Seeds of a variety of test species were sown in standard soil in pots. After cultivation for one day (pre-emergence) or after 8 days cultivation (post-emergence) under controlled conditions in a glasshouse (at 24/16° C., day/night; 14 hours light; 65% humidity), the plants were sprayed with an aqueous spray solution derived from the formulation of the technical active ingredient in acetone/water (50:50) solution containing 0.5% Tween 20 (polyoxyethelyene sorbitan monolaurate, CAS RN 9005-64-5).
(§2) The test plants were then grown in a glasshouse under controlled conditions in a glasshouse (at 24/16° C., day/night; 14 hours light; 65% humidity) and watered twice daily. After 13 days for pre and post-emergence, the test was evaluated (100=total damage to plant; 0=no damage to plant).
(§3) Alopecurus myosuroides (ALOMY), Avena fatua (AVEFA), Setaria faberi (SETFA), Echinochloa crus-galli (ECHCG), Solanum nigrum (SOLNI) and Amaranthus retoflexus (AMARE)

[2] = test system: Amaranthus retoflexus (AMARE); test: Example B pre-emergence herbicidal activity; conditions: Amaranthus retroflexus, 312 h, evaluated after 13 days, read-out: Pre-Emergence Activity AMARE (100=total damage to plant; 0=no damage to plant); for pest or weed control at 250 g/ha: rate 250 g/ha
Procedure: as §1, §2, §3

Avena fatua (AVEFA) [3] = test: Example B pre-emergence herbicidal activity; conditions: 312 h, evaluated after 13 days, read-out: Pre-Emergence Activity AVEFA (100=total damage to plant; 0=no damage to plant); for pest or weed control at 250 g/ha: rate 250 g/ha
Procedure: as §1, §2, §3

[4] = test system: Echinochloa crus-galli (ECHCG); test: Example B pre-emergence herbicidal activity; conditions: 312 h, evaluated after 13 days, read-out: Pre-Emergence Activity ECHCG (100=total damage to plant; 0=no damage to plant); for pest or weed control at 250 g/ha: rate 250 g/ha
Procedure: as §1, §2, §3

Setaria faberi (SETFA) [5] = test: Example B pre-emergence herbicidal activity; conditions: 312 h, evaluated after 13 days, read-out: Pre-Emergence Activity SETFA (100=total damage to plant; 0=no damage to plant); for pest or weed control at 250 g/ha: rate 250 g/ha
Procedure: as §1, §2, §3

[6] = test system: Alopecurus myosuroides (ALOMY); test: Example B post-emergence herbicidal activity; conditions: 312 h, evaluated after 13 days, read-out: Post-emergence activity ALOMY (100=total damage to plant; 0=no damage to plant); for pest or weed control at 250 g/ha: rate 250 g/ha
Method in brief: (§4)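 Pre-emergence spraying at one day, post-emergence at eight days after sowing. Spray solution in acetone/water (50:50) plus 0.5% Tween 20; plants held at 24/16 °C day/night, 14 h light, 65% humidity. Evaluation at 13 days on a 0–100 damage scale.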

[7] = test system: Amaranthus retoflexus (AMARE); test: Example B post-emergence herbicidal activity; conditions: Amaranthus retroflexus, 312 h, evaluated after 13 days, read-out: Post-emergence activity AMARE (100=total damage to plant; 0=no damage to plant); for pest or weed control at 250 g/ha: rate 250 g/ha
Method in brief: as §4

Avena fatua (AVEFA) [8] = test: Example B post-emergence herbicidal activity; conditions: 312 h, evaluated after 13 days, read-out: Post-emergence activity AVEFA (100=total damage to plant; 0=no damage to plant); for pest or weed control at 250 g/ha: rate 250 g/ha
Method in brief: as §4

[9] = test system: Echinochloa crus-galli (ECHCG); test: Example B post-emergence herbicidal activity; conditions: 312 h, evaluated after 13 days, read-out: Post-emergence activity ECHCG (100=total damage to plant; 0=no damage to plant); for pest or weed control at 250 g/ha: rate 250 g/ha
Method in brief: as §4

Setaria faberi (SETFA) [10] = test: Example B post-emergence herbicidal activity; conditions: 312 h, evaluated after 13 days, read-out: Post-emergence activity SETFA (100=total damage to plant; 0=no damage to plant); for pest or weed control at 250 g/ha: rate 250 g/ha
Method in brief: as §4

SMILES	pest or weed control at 250 g/ha [1]	pest or weed control at 250 g/ha [2]	pest or weed control at 250 g/ha (Avena fatua (AVEFA) [3])	pest or weed control at 250 g/ha [4]	pest or weed control at 250 g/ha (Setaria faberi (SETFA) [5])	pest or weed control at 250 g/ha [6]	pest or weed control at 250 g/ha [7]	pest or weed control at 250 g/ha (Avena fatua (AVEFA) [8])	pest or weed control at 250 g/ha [9]	pest or weed control at 250 g/ha (Setaria faberi (SETFA) [10])	pest or weed control at 1000 g/ha ([1]; rate 1000 g/ha)	pest or weed control at 1000 g/ha ([2]; rate 1000 g/ha)	pest or weed control at 1000 g/ha (Avena fatua (AVEFA) [3]; rate 1000 g/ha)	pest or weed control at 1000 g/ha ([4]; rate 1000 g/ha)	pest or weed control at 1000 g/ha (Setaria faberi (SETFA) [5]; rate 1000 g/ha)	pest or weed control at 1000 g/ha ([6]; rate 1000 g/ha)	pest or weed control at 1000 g/ha ([7]; rate 1000 g/ha)	pest or weed control at 1000 g/ha (Avena fatua (AVEFA) [8]; rate 1000 g/ha)	pest or weed control at 1000 g/ha ([9]; rate 1000 g/ha)	pest or weed control at 1000 g/ha (Setaria faberi (SETFA) [10]; rate 1000 g/ha)
CCc1sc(-c2ccc(C)cc2)nc1C1=C(OC(C)=O)[C@H]2CC[C@H](C2)C1=O [Compound P15]	90%	0%	60%	100%	90%	100%	0%	90%	100%	100%										
Cc1cc(Cl)ccc1-c1nc(C2C(=O)[C@@H]3CC[C@@H](C3)C2=O)c(C)s1 (some centres unmarked) [Compound T14]											30%	0%	80%	90%	70%	90%	20%	90%	100%	100%
COCOc1ccc(-c2nc(C3C(=O)[C@@H]4CC[C@@H](C4)C3=O)c(C)s2)cc1 (some centres unmarked) [Compound T66]	10%	0%	0%	30%	30%	10%	0%	0%	70%	70%										
Cc1sc(-c2cccs2)nc1C1C(=O)[C@@H]2CC[C@@H](C2)C1=O (some centres unmarked) [Compound T2]	0%	0%	0%	0%	50%	0%	0%	0%	30%	70%										
Cc1sc(-c2ccc(Br)cc2F)nc1C1C(=O)[C@@H]2CC[C@@H](C2)C1=O (some centres unmarked) [Compound T32]	90%	0%	80%	100%	100%	100%	0%	90%	100%	100%										
CCc1sc(-c2cc(F)c(Cl)cc2Cl)nc1C1C(=O)[C@@H]2CC[C@@H](C2)C1=O (some centres unmarked) [Compound T53]	90%	0%	80%	100%	100%	100%	0%	100%	100%	100%										
CCc1sc(-c2ccc(Cl)c(C)c2)nc1C1C(=O)[C@@H]2CC[C@@H](C2)C1=O (some centres unmarked) [Compound T20]	50%	0%	0%	70%	40%	90%	0%	90%	100%	90%										
CCc1sc(-c2c(C)cc(Cl)cc2F)nc1C1C(=O)[C@@H]2CC[C@@H](C2)C1=O (some centres unmarked) [Compound T45]	90%	0%	30%	100%	100%	100%	0%	100%	100%	100%										
Cc1sc(-c2ccc(C(C)C)cc2)nc1C1C(=O)[C@@H]2CC[C@@H](C2)C1=O (some centres unmarked) [Compound T87]	20%	20%	50%	60%	60%	50%	0%	60%	90%	90%										
CCc1sc(-c2ccc(Br)cc2F)nc1C1C(=O)[C@@H]2CC[C@@H](C2)C1=O (some centres unmarked) [Compound T33]	90%	0%	50%	100%	100%	100%	0%	100%	100%	100%										
CCc1sc(-c2ccc(Br)cc2C)nc1C1C(=O)[C@@H]2CC[C@@H](C2)C1=O (some centres unmarked) [Compound T38]	60%	0%	50%	70%	100%	100%	0%	100%	100%	100%										
Cc1cc(Br)ccc1-c1nc(C2=C(OC(=O)C(C)(C)C)[C@@H]3CC[C@@H](C3)C2=O)c(C)s1 [Compound P14]	70%	0%	100%	100%	100%	100%	0%	90%	100%	100%										
Cc1sc(-c2ccc(OC(F)F)cc2F)nc1C1C(=O)[C@@H]2CC[C@@H](C2)C1=O (some centres unmarked) [Compound T92]	70%	0%	90%	100%	100%	100%	10%	100%	100%	100%										
CCc1sc(-c2ccc(OC(F)F)cc2)nc1C1C(=O)[C@@H]2CC[C@@H](C2)C1=O (some centres unmarked) [Compound T44]	90%	0%	60%	100%	100%	100%	0%	100%	100%	100%										

Reference: patent US8598365B2, “Herbicides” (Syngenta Limited, priority 2007, dated 2013)
